PubChem BioAssay (NCI)
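Cultured in 96-well plates, cells were exposed to test compound for 48 hours across five concentrations. At the GI50, growth is halved. TGI: total growth inhibition.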

What was measured:
Test in all cases: inhibition of tumour cell growth, NCI panel, 48 h
[1] = test system: PC-3 prostate
[2] = test system: NCI-H226 lung
[3] = test system: UACC-62 melanoma
[4] = test system: SF-295 CNS
[5] = test system: A549 NSCLC
[6] = test system: SK-MEL-5 melanoma
[7] = test system: CCRF-CEM leukemia
[8] = test system: SR leukemia
[9] = test system: SF-268 CNS
[10] = test system: MDA-MB-231 breast
[11] = test system: M14 melanoma
[12] = test system: UACC-257 melanoma
[13] = test system: OVCAR-5 ovarian
[14] = test system: IGROV1 ovarian
[15] = test system: K-562 leukemia
[16] = test system: HCC-2998 colon
[17] = test system: OVCAR-8 ovarian
[18] = test system: HL-60(TB) leukemia
[19] = test system: HOP-92 NSCLC
[20] = test system: A498 renal
[21] = test system: OVCAR-3 ovarian
[22] = test system: NCI/ADR-RES ovarian
[23] = test system: SF-539 CNS
[24] = test system: HCT-116 colon
[25] = test system: NCI-H23 lung
[26] = test system: LOX IMVI melanoma
[27] = test system: SK-MEL-2 melanoma
[28] = test system: KM12 colon
[29] = test system: BT-549 breast
[30] = test system: RXF 393 renal
[31] = test system: MCF7 breast
[32] = test system: SN12C renal
[33] = test system: TK-10 renal
[34] = test system: U251 CNS
[35] = test system: HT29 colon
[36] = test system: T-47D breast
[37] = test system: DU-145 prostate
[38] = test system: MOLT-4 leukemia
[39] = test system: NCI-H522 lung
[40] = test system: SK-OV-3 ovarian
[41] = test system: UO-31 renal
[42] = test system: HOP-62 NSCLC
[43] = test system: SNB-19 CNS
[44] = test system: HCT-15 colon
[45] = test system: ACHN renal
[46] = test system: SNB-75 CNS
[47] = test system: 786-0 renal
[48] = test system: MALME-3M melanoma
[49] = test system: OVCAR-4 ovarian
[50] = test system: CAKI-1 renal
[51] = test system: HS 578T breast
[52] = test system: RPMI-8226 leukemia
[53] = test system: MDA-MB-435
[54] = test system: NCI-H460 lung
[55] = test system: COLO 205 colon
[56] = test system: SW-620 colon
[57] = test system: SK-MEL-28 melanoma

COC(=O)[C@@H]1CCCN1C(=O)[C@H]1CCCN1C(=O)[C@@H](Cc1c[nH]c2ccccc12)NC(=S)Nc1cc(C(F)(F)F)cc(C(F)(F)F)c1
GI50 [1]: 1.75 µM
TGI [1]: 3.98 µM
GI50 [2]: 2.86 µM
TGI [2]: 11.7 µM
GI50 [3]: 2.38 µM
TGI [3]: 6.29 µM
GI50 [4]: 2.27 µM
TGI [4]: 5.71 µM
GI50 [5]: 2.19 µM
TGI [5]: 5.54 µM
GI50 [6]: 2.45 µM
TGI [6]: 7.11 µM
GI50 [7]: 3.25 µM
TGI [7]: 11.3 µM
GI50 [8]: 2.48 µM
TGI [8]: 6.3 µM
GI50 [9]: 3.51 µM
TGI [9]: 12.1 µM
GI50 [10]: 2.34 µM
TGI [10]: 5.6 µM
GI50 [11]: 2.41 µM
TGI [11]: 5.86 µM
GI50 [12]: 2.5 µM
TGI [12]: 6.99 µM
GI50 [13]: 4.3 µM
TGI [13]: 18.4 µM
GI50 [14]: 2.59 µM
TGI [14]: 6.73 µM
GI50 [15]: 3.73 µM
TGI [15]: 12.2 µM
GI50 [16]: 2.05 µM
TGI [16]: 4.3 µM
GI50 [17]: 2.55 µM
TGI [17]: 6.4 µM
GI50 [18]: 2.7 µM
TGI [18]: 6.35 µM
GI50 [19]: 1.12 µM
TGI [19]: 3.43 µM
GI50 [20]: 1.01 µM
TGI [20]: 7.11 µM
GI50 [21]: 2.48 µM
TGI [21]: 5.71 µM
GI50 [22]: 3.96 µM
TGI [22]: 21.4 µM
GI50 [23]: 3.83 µM
TGI [23]: 14.3 µM
GI50 [24]: 1.96 µM
TGI [24]: 4.14 µM
GI50 [25]: 3.13 µM
TGI [25]: 11.4 µM
GI50 [26]: 1.95 µM
TGI [26]: 4.29 µM
GI50 [27]: 2.14 µM
TGI [27]: 3.98 µM
GI50 [28]: 2.84 µM
TGI [28]: 8.01 µM
GI50 [29]: 3.52 µM
TGI [29]: 11.3 µM
GI50 [30]: 2.18 µM
TGI [30]: 7.08 µM
GI50 [31]: 2.11 µM
TGI [31]: 5.37 µM
GI50 [32]: 3.14 µM
TGI [32]: 10.9 µM
GI50 [33]: 2.58 µM
TGI [33]: 6.62 µM
GI50 [34]: 1.92 µM
TGI [34]: 4.52 µM
GI50 [35]: 1.97 µM
TGI [35]: 3.84 µM
GI50 [36]: 2.44 µM
TGI [36]: 7.53 µM
GI50 [37]: 2.24 µM
TGI [37]: 4.63 µM
GI50 [38]: 2.88 µM
TGI [38]: 7.98 µM
GI50 [39]: 2.47 µM
TGI [39]: 6.65 µM
GI50 [40]: 6.56 µM
TGI [40]: 18.9 µM
GI50 [41]: 3.23 µM
TGI [41]: 11.6 µM
GI50 [42]: 3.25 µM
TGI [42]: 12.1 µM
GI50 [43]: 3.78 µM
TGI [43]: 14.4 µM
GI50 [44]: 3.35 µM
TGI [44]: 12.8 µM
GI50 [45]: 2.97 µM
TGI [45]: 11 µM
GI50 [46]: 1.4 µM
TGI [46]: 6.75 µM
GI50 [47]: 7.5 µM
TGI [47]: 20.2 µM
GI50 [48]: 2.65 µM
TGI [48]: 7.24 µM
GI50 [49]: 2.29 µM
TGI [49]: 7.55 µM
GI50 [50]: 2.75 µM
TGI [50]: 8.99 µM
GI50 [51]: 2.94 µM
TGI [51]: 13.4 µM
GI50 [52]: 2.62 µM
TGI [52]: 7.93 µM
GI50 [53]: 2.9 µM
TGI [53]: 9.07 µM
GI50 [54]: 2.01 µM
TGI [54]: 4.26 µM
GI50 [55]: 2.06 µM
TGI [55]: 3.97 µM
GI50 [56]: 3.19 µM
TGI [56]: 11.2 µM
GI50 [57]: 3.05 µM
TGI [57]: 10.2 µM
